{"source": "patent US20210317111A1", "about": "“NOVEL MEDICAMENT FOR TREATING INFLAMMATORY BOWEL DISEASE” (OTSUKA PHARMACEUTICAL CO., LTD., priority 2018, published 2021)", "key": {"[1]": {"test_system": "TNBS-induced enteritis", "experiment": "TNBS-induced enteritis model", "type": "in vivo, rat", "description": "An enteritis animal model induced with 2,4,6-trinitrobenzenesulfonic acid (TNBS) is widely used as Crohn's disease model since the inflammatory finding is pathologically similar to that of human Crohn's disease. In addition, the enteritis model was used in the non-clinical study of mesalazine that is a medicament for treating Crohn's disease. Thus, this enteritis model was used as Crohn's disease model for evaluating the present compound.\nRats were made to be fasted for 24 or 48 hours, and the body weight were measured. The rats were laparotomized under isoflurane anesthesia, and 50% ethanol (0.25 mL) containing 60 mg/mL 2,4,6-trinitrobenzenesulfonic acid (TNBS) was injected into the large intestine from the cecum side toward the anal side to induce the injury. Each group composed of 12 rats was set, and vehicle, the present compound, or salazosulfapyridine (SASP) which is an already-existing drug for treating inflammatory bowel disease were administered for 7 days from the first day after the injection of TNBS. On the 8th day, each rat was laparotomized under anesthesia and killed by exsanguination. The large intestine was removed from the anus to the cecum, the large intestine was longitudinally incised, and the incised large intestine was washed with a cold saline. The lesion area of the large intestine was photographed with a digital camera. The area of the lesion area in the photograph of the large intestine was measured using image analyzing program.\nEach compound was orally administered at a dose of 100 mg/kg twice a day from one day after inducing enteritis with TNBS. Each area of the lesion area on the 8th day was compared."}, "[2]": {"test_system": "TNF-α production", "experiment": "inhibition of LPS-induced TNF-α production in human peripheral blood (ELISA)", "type": "cell-based", "details": "24 hours", "description": "The LPS solution which was adjusted to 2 μg/mL with RPMI 1640 medium was added to 48-well plate in the amount of 250 μL/well. The each diluted solution of each test compound and the diluted solution of the solvent control were added to 3 wells for each concentration in the amount of 50 μL/well, 4-fold diluted solution of human peripheral blood was added to each well (200 μL/well), and the wells were incubated at 37° C. in 5% CO2 for 24 hours. As LPS (−) control, RPMI 1640 medium without added LPS was prepared in the same manner. The final concentrations of each test sample were adjusted to 0, 1, 3, 10, 30, and 100 μM, and the final concentration of prednisolone was adjusted to 0.3 μM. 24 hours later from the incubation, each supernatant was collected and stored at −80° C. until the measurement of the TNF-α concentration.\nThe TNF-α concentration was measured by ELISA with Human TNF-alpha Quantikine ELISA Kit (R & D Systems). Each sample was unfrozen at room temperature, and diluted with Calibrator Diluent RD6-35 (1×) of the kit by 10-fold. The 10-fold diluted supernatant and the TNF-α standard solution were added on TNF-α microplate, and reacted according to the operating manual of the kit. After the coloring, the absorbance at wave length of 450 nm was measured with a microplate reader (Multiskan FC; Thermo Fisher […]), and the calibration curve was prepared with an analysis software (Skanit Software 3.1.0.4 RE for Multiskan FC (ja)) to read the TNF-α concentration of each sample. Calibration curve used a 4-parameter logistic curve.\nThe inhibition rates were presented as the mean±standard deviation using Microsoft Excel 2010. For each blood donor, the TNF-α production rate under each compound concentration was calculated with the TNF-α concentration in the supernatant of the solvent group as 100%.\nThe results are averages of the measurements obtained from the human peripheral blood of three volunteers."}, "[3]": {"test_system": "IFN-γ", "experiment": "IFN-γ production by stimulated PBMC (ELISA)", "type": "cell-based", "details": "stimulated human PBMC, 3 days, culture supernatant", "description": "Peripheral blood (30 mL) derived from a healthy adult was layered on a lymphocyte tube Leucosep™ containing Lymphoprep (15 mL), and the tube was centrifuged at room temperature at 2000 rpm for 20 minutes. After the centrifugation, the upper 5 mL of the plasma was removed from the peripheral blood mononuclear cell (PBMC) layer with an aspirator, and the left solution containing the PBMC layer was collected into a new 50 mL tube. To the collected solution was added an equal amount of Hanks' balanced salt solution (HBSS) to dilute the cell suspension. The diluted solution was centrifuged at 4° C. at 1800 rpm for 5 minutes. After the centrifugation, the supernatant was discarded, the rest was suspended in 10 mL of AIM-V. The suspension was centrifuged at 4° C. at 1500 rpm for 5 minutes, and the supernatant was discarded. The same washing process was repeated one more time. After the centrifugation, the supernatant was discarded, and the obtained cell was suspended in 5% FBS-containing AIM-V to be used in the following tests.\nTo 96-well round-bottom plate were added 100 μL of medium containing the compound, 100 μL (0.5×10^5 beads) of anti-CD3/CD28/CD2-loaded bead suspension (Miltenyi), and 100 μL (1×10^5 cells) of PBMC suspension. The mixture was incubated at 37° C. in 5% CO2 for 3 days."}, "[4]": {"test_system": "Fusobacterium spp.", "experiment": "antibacterial activity (MIC), agar plate dilution method", "type": "cell-based", "details": "17 strains of Fusobacterium spp.; anaerobic, 37° C.", "description": "There are plural reports about the relationship between intestinal bacteria and inflammatory bowel disease, and it is thought that Fusobacterium spp., one of the intestinal bacteria is a pathogenic bacteria causing inflammatory bowel disease. […] The antibacterial activity (minimum inhibitory concentration (MIC)) was assayed by agar plate dilution method which is based on Clinical and laboratory standards institute (CLSI). The medium used herein was Brucella medium with sheep blood. […] The bacterial suspension was inoculated onto Brucella agar with sheep blood which contains the present compound or any one of the comparative drugs, and incubated at 37° C. under an anaerobic condition."}}}
{"smiles": "Cc1c(-c2cnc(N)c(C#N)c2)c(F)cc2c(=O)c(C(=O)O)cn(C3CC3)c12", "note": "[the present compound, 7-(6-amino-5-cyanopyridin-3-yl)-1-cyclopropyl-6-fluoro-1,4-dihydro-8-methyl-4-oxo-3-quinoline-carboxylic acid]", "values": [{"measurement": "area of the lesion area of the large intestine", "setting": "[1]; 100 mg/kg orally twice a day for 7 days, 8th day, vs vehicle control, P<0.01 t-test", "value": "significantly inhibited the area of lesion"}, {"measurement": "number of death during the treatment", "setting": "[1]; 100 mg/kg orally twice a day, 12 rats per group", "value": "decreased the number of death"}, {"measurement": "inhibitory effect on TNF-α production at 100 μM", "setting": "[2]; 100 μM, human peripheral blood", "value": "completely inhibited"}, {"measurement": "inhibitory activity for TNF-α production over concentration range", "setting": "[2]; 1, 3, 10, 30, 100 μM, human peripheral blood", "value": "dose-dependent manner"}, {"measurement": "IC50", "setting": "[2]; human peripheral blood of three volunteers", "value": 6.25, "unit": "µM"}, {"measurement": "cytokine production (IFN-γ)", "setting": "[3]", "value": "decreased"}, {"measurement": "MIC", "setting": "[4]", "value": "0.25 to 1", "unit": "µg/mL"}]}
